Experimental data from ChEMBL document CHEMBL1201862, “PubChem BioAssay data set” (2004).
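Each compound was tested at five concentrations against cells in 96-well plates for 48 hours. GI50 is the concentration that inhibits growth by half.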 The source made the active and inactive calls. Rule as the data show it: active = GI50 up to about 1.1 µM and inactive = higher.

Assays:
Assay in all cases: NCI anticancer screen, dose series, 48 h
[1] = tested on: 786-0
[2] = tested on: A498
[3] = tested on: A549
[4] = tested on: ACHN
[5] = tested on: BT-549
[6] = tested on: CAKI-1
[7] = tested on: CCRF-CEM
[8] = tested on: COLO 205
[9] = tested on: DU-145
[10] = tested on: EKVX
[11] = tested on: HCC 2998
[12] = tested on: HCT-116
[13] = tested on: HCT-15
[14] = tested on: HOP-62
[15] = tested on: HT-29
[16] = tested on: Hs-578T
[17] = tested on: IGROV-1
[18] = tested on: K562
[19] = tested on: KM12
[20] = tested on: LOX IMVI
[21] = tested on: M14
[22] = tested on: MCF7
[23] = tested on: MDA-MB-231
[24] = tested on: MDA-MB-435
[25] = tested on: MDA-N
[26] = tested on: MOLT-4
[27] = tested on: Malme-3M
[28] = tested on: NCI-H226
[29] = tested on: NCI-H23
[30] = tested on: NCI-H460
[31] = tested on: NCI-H522
[32] = tested on: NCI/ADR-RES
[33] = tested on: OVCAR-3
[34] = tested on: OVCAR-4
[35] = tested on: OVCAR-5
[36] = tested on: OVCAR-8
[37] = tested on: PC-3
[38] = tested on: RPMI-8226
[39] = tested on: RXF 393
[40] = tested on: SF-268
[41] = tested on: SF-295
[42] = tested on: SK-MEL-28
[43] = tested on: SK-MEL-2
[44] = tested on: SK-MEL-5
[45] = tested on: SK-OV-3
[46] = tested on: SN12C
[47] = tested on: SNB-19
[48] = tested on: SNB-75
[49] = tested on: SR
[50] = tested on: SW-620
[51] = tested on: T47D
[52] = tested on: TK-10
[53] = tested on: U-251
[54] = tested on: UACC-257
[55] = tested on: UACC-62
[56] = tested on: UO-31

Measured: GI50

Cc1c(C)c(S(=O)(=O)N(CCCN)OCCCN)c(C)c2c1OC(C)(C)C2
68.7 µM: [13]
inactive: [1] 25.5 µM | [2] 18.8 µM | [3] 44.1 µM | [4] 29.6 µM | [5] 30.5 µM | [6] 34.4 µM | [7] 30 µM | [8] 17.1 µM | [9] 30.6 µM | [10] 16.3 µM | [11] 19.5 µM | [12] 35.3 µM | [14] 35.6 µM | [15] 45.8 µM | [16] 18.8 µM | [17] 22.9 µM | [18] 35 µM | [19] 17.6 µM | [20] 19.6 µM | [21] 18.1 µM | [22] 20.5 µM | [23] 14.8 µM | [24] 53.7 µM | [25] 19 µM | [26] 20.4 µM | [27] 18.5 µM | [28] 72.1 µM | [29] 29.8 µM | [30] 36.8 µM | [31] 15.5 µM | [32] > 100 µM | [33] 21.4 µM | [34] 30.7 µM | [35] 23.5 µM | [36] 80.5 µM | [37] 17.7 µM | [38] 42.3 µM | [39] 15.2 µM | [40] 27.6 µM | [41] 29.8 µM | [42] 83.6 µM | [43] 9.64 µM | [44] 30.8 µM | [45] 39.4 µM | [46] 61.1 µM | [47] 15.4 µM | [48] 17.3 µM | [49] 34.8 µM | [50] 27.5 µM | [51] 32.6 µM | [52] 45.5 µM | [53] 17.3 µM | [54] 34.3 µM | [55] 51.4 µM | [56] 33.4 µM

Cc1cc2c(c(C(=O)NCCC(=O)N[C@@H](C)C(=O)OCc3ccccc3)c1)Oc1c(cc(C)cc1C(=O)NCCC(=O)N[C@@H](C)C(=O)OCc1ccccc1)S2
inactive: [1] > 100 µM | [2] > 100 µM | [3] > 100 µM | [4] > 100 µM | [5] > 100 µM | [6] > 100 µM | [7] > 100 µM | [8] > 100 µM | [9] > 100 µM | [10] > 100 µM | [11] > 100 µM | [12] > 100 µM | [14] > 100 µM | [15] > 100 µM | [16] > 100 µM | [17] > 100 µM | [18] > 100 µM | [19] > 100 µM | [21] > 100 µM | [22] > 100 µM | [23] > 100 µM | [24] > 100 µM | [25] > 100 µM | [26] > 100 µM | [27] > 100 µM | [28] > 100 µM | [29] > 100 µM | [30] > 100 µM | [32] > 100 µM | [33] > 100 µM | [34] > 100 µM | [35] > 100 µM | [36] > 100 µM | [37] > 100 µM | [38] > 100 µM | [39] 38.5 µM | [40] > 100 µM | [41] > 100 µM | [43] > 100 µM | [44] > 100 µM | [45] 80 µM | [46] > 100 µM | [47] > 100 µM | [48] > 100 µM | [49] 43.3 µM | [50] > 100 µM | [51] > 100 µM | [53] > 100 µM | [54] > 100 µM | [55] > 100 µM | [56] > 100 µM
> 100 µM: [13]
